Measurements as given in ChEMBL document CHEMBL4229379, “Synthesis and structure-activity relationship of novel bisindole amidines active against MDR Gram-positive and Gram-negative bacteria” (Eur J Med Chem, 2018).

Assays:
Enterococcus faecalis [1] = assay: Antibacterial activity against vancomycin-resistant Enterococcus faecalis 09-9 after 18 hrs by CLSI broth microdilution method; assay type: functional; details: 09-9, 18 h
Klebsiella aerogenes = assay: Antibacterial activity against Enterobacter aerogenes ATCC 13048 after 18 hrs by CLSI broth microdilution method; assay type: functional; details: ATCC 13048, 18 h
[2] = test system: Acinetobacter calcoaceticus; assay: Antibacterial activity against Acinetobacter calcoaceticus ATCC 19606 after 18 hrs by CLSI broth microdilution method; assay type: functional; details: ATCC 19606, 18 h
[3] = test system: Staphylococcus epidermidis; assay: Antibacterial activity against methicillin-resistant Staphylococcus epidermidis 12-8 after 18 hrs by CLSI broth microdilution method; assay type: functional; details: 12-8, 18 h
Enterococcus faecalis [4] = assay: Antibacterial activity against vancomycin-sensitive Enterococcus faecalis 12-5 after 18 hrs by CLSI broth microdilution method; assay type: functional; details: 12-5, 18 h
Escherichia coli [5] = assay: Antibacterial activity against extended-spectrum beta-lactamase harboring Escherichia coli 12-15 after 18 hrs by CLSI broth microdilution method; assay type: functional; details: 12-15, 18 h
Citrobacter freundii = assay: Antibacterial activity against Citrobacter freundii ATCC 43864 after 18 hrs by CLSI broth microdilution method; assay type: functional; details: ATCC 43864, 18 h
[6] = test system: Stenotrophomonas maltophilia; assay: Antibacterial activity against Stenotrophomonas maltophilia ATCC 13636 after 18 hrs by CLSI broth microdilution method; assay type: functional; details: ATCC 13636, 18 h
Enterobacter cloacae = assay: Antibacterial activity against Enterobacter cloacae ATCC 43560 after 18 hrs by CLSI broth microdilution method; assay type: functional; details: ATCC 43560, 18 h
Enterococcus faecalis [7] = assay: Antibacterial activity against vancomycin-resistant Enterococcus faecalis ATCC 51299 after 18 hrs by CLSI broth microdilution method; assay type: functional; details: ATCC 51299, 18 h
Staphylococcus aureus [8] = assay: Antibacterial activity against methicillin-sensitive Staphylococcus aureus ATCC 29213 after 18 hrs by CLSI broth microdilution method; assay type: functional; details: ATCC 29213, 18 h
Pseudomonas aeruginosa [9] = assay: Antibacterial activity against Pseudomonas aeruginosa 12-16 after 18 hrs by CLSI broth microdilution method; assay type: functional; details: 12-16, 18 h
Staphylococcus aureus [10] = assay: Antibacterial activity against methicillin-resistant Staphylococcus aureus 12-33 after 18 hrs by CLSI broth microdilution method; assay type: functional; details: 12-33, 18 h
Klebsiella pneumoniae [11] = assay: Antibacterial activity against extended-spectrum beta-lactamase deficient Klebsiella pneumoniae 12-4 after 18 hrs by CLSI broth microdilution method; assay type: functional; details: 12-4, 18 h
Klebsiella pneumoniae [12] = assay: Antibacterial activity against new delhi metallo-beta-lactamase-1 harboring Klebsiella pneumoniae ATCC BAA-2146 after 18 hrs by CLSI broth microdilution method; assay type: functional; details: ATCC BAA-2146, 18 h
Proteus mirabilis = assay: Antibacterial activity against Proteus mirabilis 12-6 after 18 hrs by CLSI broth microdilution method; assay type: functional; details: 12-6, 18 h
Providencia rettgeri = assay: Antibacterial activity against Providencia rettgeri ATCC 31052 after 18 hrs by CLSI broth microdilution method; assay type: functional; details: ATCC 31052, 18 h
Serratia marcescens = assay: Antibacterial activity against Serratia marcescens ATCC 21074 after 18 hrs by CLSI broth microdilution method; assay type: functional; details: ATCC 21074, 18 h
[13] = test system: Staphylococcus epidermidis; assay: Antibacterial activity against methicillin-sensitive Staphylococcus epidermidis ATCC 12228 after 18 hrs by CLSI broth microdilution method; assay type: functional; details: ATCC 12228, 18 h
Staphylococcus aureus [14] = assay: Antibacterial activity against methicillin-sensitive Staphylococcus aureus 15 after 18 hrs by CLSI broth microdilution method; assay type: functional; details: Staphylococcus aureus, 15, 18 h
Klebsiella pneumoniae [15] = assay: Antibacterial activity against extended-spectrum beta-lactamase harboring Klebsiella pneumoniae ATCC 700603 after 18 hrs by CLSI broth microdilution method; assay type: functional; details: Klebsiella pneumoniae, 700603, 18 h
Proteus vulgaris = assay: Antibacterial activity against Proteus vulgaris ATCC 29905 after 18 hrs by CLSI broth microdilution method; assay type: functional; details: ATCC 29905, 18 h
Klebsiella pneumoniae [16] = assay: Antibacterial activity against extended-spectrum beta-lactamase harboring Klebsiella pneumoniae 12-8 after 18 hrs by CLSI broth microdilution method; assay type: functional; details: 12-8, 18 h
[17] = test system: Staphylococcus epidermidis; assay: Antibacterial activity against methicillin-sensitive Staphylococcus epidermidis 12-6 after 18 hrs by CLSI broth microdilution method; assay type: functional; details: 12-6, 18 h
Escherichia coli [18] = assay: Antibacterial activity against extended-spectrum beta-lactamase deficient Escherichia coli 12-14 after 18 hrs by CLSI broth microdilution method; assay type: functional; details: 12-14, 18 h
Enterococcus faecalis [19] = assay: Antibacterial activity against vancomycin-sensitive Enterococcus faecalis ATCC 29212 after 18 hrs by CLSI broth microdilution method; assay type: functional; details: ATCC 29212, 18 h
[20] = Cytotoxicity against HEK293T cells assessed as reduction in cell viability after 48 hrs by MTS assay; assay type: cell-based, HEK-293T; details: human
Staphylococcus aureus [21] = assay: Antibacterial activity against methicillin-resistant Staphylococcus aureus ATCC 33591 after 18 hrs by CLSI broth microdilution method; assay type: functional; details: ATCC 33591, 18 h
Pseudomonas aeruginosa [22] = assay: Antibacterial activity against Pseudomonas aeruginosa ATCC 27853 after 18 hrs by CLSI broth microdilution method; assay type: functional; details: ATCC 27853, 18 h
Escherichia coli [23] = assay: Antibacterial activity against extended-spectrum beta-lactamase deficient Escherichia coli 1515 after 18 hrs by CLSI broth microdilution method; assay type: functional; details: Escherichia coli, 1515, 18 h
Klebsiella pneumoniae [24] = assay: Antibacterial activity against extended-spectrum beta-lactamase deficient Klebsiella pneumoniae 7 after 18 hrs by CLSI broth microdilution method; assay type: functional; details: Klebsiella pneumoniae, 7, 18 h
Enterococcus faecium [25] = assay: Antibacterial activity against vancomycin-resistant Enterococcus faecium 12-1 after 18 hrs by CLSI broth microdilution method; assay type: functional; details: 12-1, 18 h
Enterococcus faecium [26] = assay: Antibacterial activity against vancomycin-sensitive Enterococcus faecium 12-3 after 18 hrs by CLSI broth microdilution method; assay type: functional; details: 12-3, 18 h
Pseudomonas aeruginosa [27] = assay: Antibacterial activity against Pseudomonas aeruginosa PAO1 after 18 hrs by CLSI broth microdilution method; assay type: functional; details: PAO1, 18 h
Staphylococcus aureus [28] = assay: Antibacterial activity against methicillin-sensitive Staphylococcus aureus 12-28 after 18 hrs by CLSI broth microdilution method; assay type: functional; details: 12-28, 18 h
Enterococcus faecium [29] = assay: Antibacterial activity against vancomycin-resistant Enterococcus faecium ATCC 700221 after 18 hrs by CLSI broth microdilution method; assay type: functional; details: ATCC 700221, 18 h
Escherichia coli [30] = assay: Antibacterial activity against extended-spectrum beta-lactamase deficient Escherichia coli ATCC 25922 after 18 hrs by CLSI broth microdilution method; assay type: functional; details: ATCC 25922, 18 h

CCNC(=N)c1ccc2cc(-c3ccc(-c4cc5ccc(C(=N)NCC)cc5[nH]4)cc3)[nH]c2c1
2 µg/mL: MIC (Enterococcus faecalis [1]) | MIC (Enterococcus faecalis [4]) | MIC (Enterococcus faecalis [7]) | MIC (Enterococcus faecium [26])
32 µg/mL: MIC (Pseudomonas aeruginosa [9]) | MIC (Klebsiella pneumoniae [12]) | MIC (Providencia rettgeri) | MIC (Serratia marcescens) | MIC (Klebsiella pneumoniae [15]) | MIC (Klebsiella pneumoniae [16]) | MIC (Escherichia coli [23]) | MIC (Pseudomonas aeruginosa [27])
16 µg/mL: MIC (Klebsiella aerogenes) | MIC (Escherichia coli [5]) | MIC (Citrobacter freundii) | MIC (Enterobacter cloacae) | MIC (Klebsiella pneumoniae [11]) | MIC (Escherichia coli [18]) | MIC (Klebsiella pneumoniae [24])
64 µg/mL: MIC [2] | MIC (Proteus vulgaris)
1 µg/mL: MIC [3] | MIC (Staphylococcus aureus [8]) | MIC (Staphylococcus aureus [10]) | MIC (Staphylococcus aureus [14]) | MIC [17] | MIC (Enterococcus faecalis [19]) | MIC (Staphylococcus aureus [21]) | MIC (Enterococcus faecium [25]) | MIC (Staphylococcus aureus [28]) | MIC (Enterococcus faecium [29])
> 64 µg/mL: MIC (Proteus mirabilis)
8 µg/mL: MIC [6] | MIC (Pseudomonas aeruginosa [22]) | MIC (Escherichia coli [30])
4.1 µg/mL: CC50 at 48 h [20]
0.5 µg/mL: MIC [13]

N=C(c1ccc2cc(-c3ccc(-c4cc5ccc(C(=N)N6CC=CCC6)cc5[nH]4)cc3)[nH]c2c1)N1CC=CCC1
4 µg/mL: MIC (Enterococcus faecalis [1]) | MIC [17] | MIC (Enterococcus faecalis [19]) | MIC (Enterococcus faecium [25]) | MIC (Enterococcus faecium [26]) | MIC (Enterococcus faecium [29])
64 µg/mL: MIC (Serratia marcescens)
13.3 µg/mL: CC50 at 48 h [20]
1 µg/mL: MIC [13] | MIC (Staphylococcus aureus [21])
32 µg/mL: MIC (Proteus mirabilis) | MIC (Klebsiella pneumoniae [15])
2 µg/mL: MIC [3] | MIC (Staphylococcus aureus [8]) | MIC (Staphylococcus aureus [10]) | MIC (Staphylococcus aureus [14]) | MIC (Staphylococcus aureus [28])
> 128 µg/mL: MIC (Pseudomonas aeruginosa [9]) | MIC (Pseudomonas aeruginosa [22]) | MIC (Pseudomonas aeruginosa [27])
8 µg/mL: MIC (Klebsiella aerogenes) | MIC (Enterococcus faecalis [4]) | MIC (Escherichia coli [5]) | MIC (Citrobacter freundii) | MIC (Enterobacter cloacae) | MIC (Enterococcus faecalis [7]) | MIC (Klebsiella pneumoniae [12]) | MIC (Providencia rettgeri) | MIC (Escherichia coli [18]) | MIC (Escherichia coli [23]) | MIC (Escherichia coli [30])
16 µg/mL: MIC [2] | MIC [6] | MIC (Klebsiella pneumoniae [11]) | MIC (Proteus vulgaris) | MIC (Klebsiella pneumoniae [16]) | MIC (Klebsiella pneumoniae [24])

CN(C)C(=N)c1ccc2cc(-c3cnc(-c4cc5ccc(C(=N)N(C)C)cc5[nH]4)cn3)[nH]c2c1
4 µg/mL: MIC (Enterococcus faecalis [1]) | MIC (Staphylococcus aureus [10]) | MIC [17] | MIC (Escherichia coli [18]) | MIC (Enterococcus faecalis [19]) | MIC (Escherichia coli [23]) | MIC (Enterococcus faecium [26]) | MIC (Enterococcus faecium [29]) | MIC (Escherichia coli [30])
128 µg/mL: MIC (Serratia marcescens) | MIC (Pseudomonas aeruginosa [22])
64 µg/mL: MIC (Proteus mirabilis) | MIC (Klebsiella pneumoniae [15])
0.5 µg/mL: MIC [13]
13 µg/mL: CC50 at 48 h [20]
2 µg/mL: MIC (Enterococcus faecium [25])
> 128 µg/mL: MIC (Pseudomonas aeruginosa [9]) | MIC (Pseudomonas aeruginosa [27])
1 µg/mL: MIC [3] | MIC (Staphylococcus aureus [8]) | MIC (Staphylococcus aureus [14]) | MIC (Staphylococcus aureus [21]) | MIC (Staphylococcus aureus [28])
32 µg/mL: MIC [2] | MIC [6]
16 µg/mL: MIC (Klebsiella aerogenes) | MIC (Escherichia coli [5]) | MIC (Klebsiella pneumoniae [11]) | MIC (Klebsiella pneumoniae [12]) | MIC (Providencia rettgeri) | MIC (Proteus vulgaris) | MIC (Klebsiella pneumoniae [16]) | MIC (Klebsiella pneumoniae [24])
8 µg/mL: MIC (Enterococcus faecalis [4]) | MIC (Citrobacter freundii) | MIC (Enterobacter cloacae) | MIC (Enterococcus faecalis [7])
